Source: patent publication US11083699B2, “Trans-4-hydroxycyclohexyl phenyl amide mitofusin activators and methods of use thereof” (MITOCHONDRIA EMOTION, INC., priority 2019, dated 2021)
Like-named read-outs stand apart in the source and are kept apart here.

Experiments:
[1] = Stability in human liver microsomes; assay type: in vitro ADME
[2] = Stability in mouse liver microsomes; assay type: in vitro ADME
P-gp = P-gp (Homo sapiens, UniProt P08183); experiment: P-gp study, bidirectional permeability in NIH MDR1 cells; assay type: in vitro ADME
Sequence of P-gp (P08183 whole entry): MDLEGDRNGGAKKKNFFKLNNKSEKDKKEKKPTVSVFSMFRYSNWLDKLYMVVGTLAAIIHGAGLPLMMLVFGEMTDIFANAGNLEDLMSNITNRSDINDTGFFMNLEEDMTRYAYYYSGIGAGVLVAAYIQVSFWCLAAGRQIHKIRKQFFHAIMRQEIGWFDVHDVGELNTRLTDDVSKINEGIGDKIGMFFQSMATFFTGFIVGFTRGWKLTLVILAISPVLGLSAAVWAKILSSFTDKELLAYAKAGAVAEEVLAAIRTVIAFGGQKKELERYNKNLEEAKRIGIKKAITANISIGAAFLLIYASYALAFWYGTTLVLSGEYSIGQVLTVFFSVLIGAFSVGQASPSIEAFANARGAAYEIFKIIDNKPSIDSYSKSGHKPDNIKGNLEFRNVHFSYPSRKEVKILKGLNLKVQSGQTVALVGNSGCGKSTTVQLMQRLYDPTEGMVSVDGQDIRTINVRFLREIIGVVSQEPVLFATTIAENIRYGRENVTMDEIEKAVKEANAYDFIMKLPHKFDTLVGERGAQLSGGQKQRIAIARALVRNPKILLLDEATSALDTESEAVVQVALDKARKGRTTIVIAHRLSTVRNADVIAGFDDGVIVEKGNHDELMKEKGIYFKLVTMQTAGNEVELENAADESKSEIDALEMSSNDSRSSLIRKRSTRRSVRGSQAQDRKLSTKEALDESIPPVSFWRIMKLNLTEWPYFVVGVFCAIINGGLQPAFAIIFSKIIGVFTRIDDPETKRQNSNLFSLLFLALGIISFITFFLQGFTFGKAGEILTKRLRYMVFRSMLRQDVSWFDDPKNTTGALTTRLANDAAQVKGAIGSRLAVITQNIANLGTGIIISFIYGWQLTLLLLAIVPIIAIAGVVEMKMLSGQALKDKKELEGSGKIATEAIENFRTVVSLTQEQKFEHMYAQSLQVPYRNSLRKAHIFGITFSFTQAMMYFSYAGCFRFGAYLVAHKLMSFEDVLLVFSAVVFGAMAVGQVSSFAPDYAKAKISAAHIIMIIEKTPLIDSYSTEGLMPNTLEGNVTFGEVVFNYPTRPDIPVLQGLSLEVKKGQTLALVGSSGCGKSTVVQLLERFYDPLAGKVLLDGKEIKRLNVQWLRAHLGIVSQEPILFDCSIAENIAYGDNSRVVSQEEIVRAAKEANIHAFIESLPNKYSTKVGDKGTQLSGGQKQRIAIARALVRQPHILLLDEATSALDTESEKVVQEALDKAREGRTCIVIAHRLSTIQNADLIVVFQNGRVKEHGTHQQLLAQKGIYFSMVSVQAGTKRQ

[3] = Parallel artificial membrane permeability assay (PAMPA); assay type: in vitro ADME
MAO-A = target: T1, MAO-A (Homo sapiens, UniProt P21397); experiment: Receptor/kinase panel: MAO-A; assay type: biochemical; conditions: off-target DAT/MAO-A at 10 μM vs on-target potency
T1 sequence (P21397 1-527): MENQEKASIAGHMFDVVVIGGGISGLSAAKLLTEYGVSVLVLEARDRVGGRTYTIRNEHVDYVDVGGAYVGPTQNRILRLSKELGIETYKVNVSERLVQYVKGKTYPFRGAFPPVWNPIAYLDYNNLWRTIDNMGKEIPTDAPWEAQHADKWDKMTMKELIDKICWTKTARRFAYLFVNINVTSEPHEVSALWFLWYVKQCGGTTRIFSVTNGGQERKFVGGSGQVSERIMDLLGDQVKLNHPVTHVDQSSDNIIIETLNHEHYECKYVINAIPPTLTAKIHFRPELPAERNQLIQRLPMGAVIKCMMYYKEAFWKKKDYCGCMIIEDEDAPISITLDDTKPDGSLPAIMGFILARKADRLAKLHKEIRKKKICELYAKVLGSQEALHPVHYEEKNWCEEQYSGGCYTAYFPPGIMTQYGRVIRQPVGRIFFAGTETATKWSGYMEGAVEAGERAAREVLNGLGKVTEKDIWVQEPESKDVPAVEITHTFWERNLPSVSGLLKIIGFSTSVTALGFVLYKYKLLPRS

[4] = Mouse PK, plasma and brain levels after single IV dose; assay type: in vivo; conditions: single 10 mg/kg IV
[5] = GF120918 −, read-out: Mean Recovery % A to B

Structure (SMILES) | t1/2 HLM [1] [h] | t1/2 MLM [2] [h] | recovery (P-gp; [5]) [%] | also measured
O=C(CCCCOc1ccccc1)N[C@H]1CC[C@H](O)CC1 [Compound 21] | >2.42 | >2.42 |  | 
O=C(CCCOCc1ccccc1)N[C@H]1CC[C@H](O)CC1 [Compound 22] | >2.42 | >2.42 |  | 
O=C(N[C@H]1CC[C@H](O)CC1)OCCCCc1ccccc1 [Compound 25] | 2.188 | 0.815 |  | PAMPA compared to parent trans-N-(4-hydroxycyclohexyl)-6-phenylhexanamide [3]: 10 fold
O=C(CCCCCc1ccccc1)N[C@H]1CC[C@H](O)CC1 [Compound 15B, N-(trans-4-Hydroxycyclohexyl)-6-phenylhexanamide] |  |  |  | safety window compared to on-target efficacy (MAO-A): 1,000 fold; Vdss (volume of distribution at steady state) [4]: 0.35 L/kg; time therapeutic brain levels (>30 ng/g) were maintained [4]: more than 2 hours

Now from value to compound, other results behind:

t1/2 HLM [1] [h] | t1/2 MLM [2] [h] | recovery (P-gp; [5]) [%] | Structure (SMILES) | also measured
>2.42 | >2.42 |  | O=C(CCOCCc1ccccc1)N[C@H]1CC[C@H](O)CC1 [Compound 23] | 
>2.42 | >2.42 |  | O=C(COCCCc1ccccc1)N[C@H]1CC[C@H](O)CC1 [Compound 24] | 
 |  | 105 | COCCc1ccc(OCC(O)CNC(C)C)cc1 (centres unmarked) [Metoprolol] | Papp A→B (P-gp; MDCK-MDR1, GF120918 −): 21.2 ×10⁻⁶ cm/s
 |  | 97.9 | CC(C)(C)NCC(O)COc1cccc2c1CC(O)C(O)C2 (centres unmarked) [Nadolol] | Papp A→B (P-gp; MDCK-MDR1, GF120918 −): 0.26 ×10⁻⁶ cm/s
 |  | 98.9 | C[C@H]1O[C@@H](O[C@H]2[C@@H](O)C[C@H](O[C@H]3[C@@H](O)C[C@H](O[C@H]4CC[C@@]5(C)[C@H](CC[C@@H]6[C@@H]5C[C@@H](O)[C@]5(C)[C@@H](C7=CC(=O)OC7)CC[C@]65O)C4)O[C@@H]3C)O[C@@H]2C)C[C@H](O)[C@@H]1O [Digoxin] | recovery (P-gp; GF120918 −, read-out: Mean Recovery % B to A): 103%; Papp B→A (P-gp; MDCK-MDR1, with GF120918 (concentration not stated), GF120918 +): 2.05 ×10⁻⁶ cm/s; Papp B→A (P-gp; MDCK-MDR1, GF120918 −): 13.4 ×10⁻⁶ cm/s; recovery (P-gp; with GF120918 (concentration not stated), GF120918 +, read-out: Mean Recovery % B to A): 99.3%
